Reference: patent publication US20090099029A1, “Methods and substrates for conducting assays” (Invitrogen Corporation, priority 2005, published 2009)

Tests used:
[1] = molecular target: EPHB3 (Homo sapiens, UniProt P54753); test: Dose-response analysis on 10-well kinase microarray; type: biochemical; details: different inhibitor concentration in each well; substrate MBP, histone and casein
Experimental: (§1) The wash solution is then discarded.
Microarrays were prepared with 10 wells/slide, wherein the kinases EPHB3, FYN, and PRKCD and their substrate were immobilized in each well. The slide was coated with substrate essentially as described in Example I. Subsequently, a gasket with 10 openings was applied to the surface of the slide thereby creating 10 wells, i.e., the gasket provides the barriers between the wells. The accession numbers for the different kinases in the NCBI database are: for FYN: NM_002037; for PRKCD: NM_006254; and for EPHB3: NM_004443.

[2] = molecular target: PRKCD (Homo sapiens, UniProt Q05655); test: as above; type: biochemical; details: different inhibitor concentration in each well; substrate MBP, histone and casein
Sequence of PRKCD (Q05655 whole entry): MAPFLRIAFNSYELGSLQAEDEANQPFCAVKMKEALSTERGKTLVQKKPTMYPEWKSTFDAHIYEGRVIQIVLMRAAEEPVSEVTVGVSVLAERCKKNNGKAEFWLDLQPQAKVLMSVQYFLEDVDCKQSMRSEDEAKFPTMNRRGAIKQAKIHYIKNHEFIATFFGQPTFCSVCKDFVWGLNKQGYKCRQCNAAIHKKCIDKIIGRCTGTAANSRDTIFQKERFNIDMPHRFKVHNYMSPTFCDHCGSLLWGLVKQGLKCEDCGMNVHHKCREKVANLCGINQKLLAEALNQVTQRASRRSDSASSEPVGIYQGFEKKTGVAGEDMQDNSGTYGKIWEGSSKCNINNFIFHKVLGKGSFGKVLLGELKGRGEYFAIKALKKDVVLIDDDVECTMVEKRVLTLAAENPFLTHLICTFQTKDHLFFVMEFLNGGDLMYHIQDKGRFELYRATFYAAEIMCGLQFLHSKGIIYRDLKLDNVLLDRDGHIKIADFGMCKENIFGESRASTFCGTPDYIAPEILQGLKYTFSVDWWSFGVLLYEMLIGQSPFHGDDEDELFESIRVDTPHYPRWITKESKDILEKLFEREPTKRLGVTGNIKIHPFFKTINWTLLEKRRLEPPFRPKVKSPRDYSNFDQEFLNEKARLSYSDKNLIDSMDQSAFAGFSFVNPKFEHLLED
Experimental: as §1
(§2) Microarrays were prepared with 10 wells/slide, wherein the kinases EPHB3, FYN, and PRKCD and their substrate were immobilized in each well.

[3] = system: tyrosine kinases; test: Inhibitor specificity profiling on kinase microarray (fifty kinases, gamma-AT33P); details: inhibitor 100 μm; substrate mixture of MBP, histone and casein
Experimental: To coat slides with kinase substrate, the substrates are diluted to 10 ng/μL in 1×PBS and 180-200 μL of substrate solution are pipetted onto one slide, e.g., a glass slide, aldehyde treated slides (TeleChem International, Inc.), nitrocellulose-coated slides (Schleicher & Schuell), slides with an amino-silane surface (Corning). A second slide is then placed on top of the first slide so that the sides to be deposited with kinases face each other. Care should be taken that the liquid covers the entire slide and that there are no air bubbles. The slides are placed in a 50 mL conical tube, making sure they are laying flat and incubated at 4° C. for one hour to several days.
Subsequently, approximately 100 mL of PBST are added to the dish. The slides are then washed for one hour at 4° C. with shaking. The PBST is then discarded and the slides are gently rinsed with dH2O using a squirt bottle. After rinsing, the slides are placed into a slide boxes and centrifuged at 4000 rpm for one minute. The slides are then stored at 4° C. until printing with kinase.
1 mL of kinase assay buffer for every 12 glass slides to be probed is prepared. 6 μL of gamma-AT^33P (10 μCi/μL) are added to the assay buffer. The slides are placed in 50 mL conical tubes, laying flat, proteins facing up. 70 μL to 150 μL of the kinase assay buffer with gamma-AT^33P are added onto each slide. […]

[4] = system: 39 kinases (Table 4); test: Global specificity profiling experiment, single point inhibition on kinase microarray; type: biochemical; details: substrates histone, casein, MBP, polyEY, control 2% DMSO
Experimental: as §1
To assess the application of microarray assays for compound profiling, seven known inhibitors (see Table of inhibitors used in global specificity profiling experiment) and one control (2% DMSO) were tested on microarrays deposited with a group of kinases (as well as positive and negative controls). The method of Example I was used. Twelve spots of each kinase or control were deposited on each array, and three arrays were used for each inhibitor. A mixture of generic kinase substrates (histone, casein, MBP, and polyEY) was used in the assay. The average of all signals from the same inhibitor or control experiment was calculated.
. The general specificities observed were consistent with the known general specificities for these inhibitors, which are listed in Table 3.

[5] = molecular target: T1, FYN (Homo sapiens, UniProt P06241); test: Dose-response analysis on 10-well kinase microarray; type: biochemical; details: different inhibitor concentration in each well; substrate MBP, histone and casein
T1 sequence (P06241 whole entry): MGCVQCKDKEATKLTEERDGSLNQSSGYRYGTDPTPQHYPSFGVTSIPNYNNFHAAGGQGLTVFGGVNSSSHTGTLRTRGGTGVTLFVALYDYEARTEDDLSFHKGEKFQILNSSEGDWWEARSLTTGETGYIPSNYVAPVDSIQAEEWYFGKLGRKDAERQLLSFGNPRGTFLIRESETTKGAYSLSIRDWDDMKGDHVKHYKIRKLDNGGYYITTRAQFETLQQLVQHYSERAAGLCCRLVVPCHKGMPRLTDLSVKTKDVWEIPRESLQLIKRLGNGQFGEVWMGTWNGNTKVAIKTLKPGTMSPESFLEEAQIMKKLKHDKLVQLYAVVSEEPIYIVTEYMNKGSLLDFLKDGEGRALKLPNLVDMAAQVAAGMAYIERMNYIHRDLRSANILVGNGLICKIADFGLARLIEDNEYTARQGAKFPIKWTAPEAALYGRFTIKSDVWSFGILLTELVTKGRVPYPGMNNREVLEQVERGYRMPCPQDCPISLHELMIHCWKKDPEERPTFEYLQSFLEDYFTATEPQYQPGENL
Experimental: as §1, §2

[6] = molecular target: T1, FYN; test: Global specificity profiling experiment, single point inhibition on kinase microarray; type: biochemical; details: substrates histone, casein, MBP, polyEY
Experimental: as §1
A mixture of generic kinase substrates (histone, casein, MBP, and polyEY) was used in the assay. The average of all signals from the same inhibitor or control experiment was calculated.
To expedite data analysis regarding the kinase families that are inhibited by a particular […], a graphical representation can be constructed of inhibition data for substrates in such a manner that phylogenetically related kinases can be spatially arranged on the graphical representation.

Sequence of EPHB3 (P54753 34-998): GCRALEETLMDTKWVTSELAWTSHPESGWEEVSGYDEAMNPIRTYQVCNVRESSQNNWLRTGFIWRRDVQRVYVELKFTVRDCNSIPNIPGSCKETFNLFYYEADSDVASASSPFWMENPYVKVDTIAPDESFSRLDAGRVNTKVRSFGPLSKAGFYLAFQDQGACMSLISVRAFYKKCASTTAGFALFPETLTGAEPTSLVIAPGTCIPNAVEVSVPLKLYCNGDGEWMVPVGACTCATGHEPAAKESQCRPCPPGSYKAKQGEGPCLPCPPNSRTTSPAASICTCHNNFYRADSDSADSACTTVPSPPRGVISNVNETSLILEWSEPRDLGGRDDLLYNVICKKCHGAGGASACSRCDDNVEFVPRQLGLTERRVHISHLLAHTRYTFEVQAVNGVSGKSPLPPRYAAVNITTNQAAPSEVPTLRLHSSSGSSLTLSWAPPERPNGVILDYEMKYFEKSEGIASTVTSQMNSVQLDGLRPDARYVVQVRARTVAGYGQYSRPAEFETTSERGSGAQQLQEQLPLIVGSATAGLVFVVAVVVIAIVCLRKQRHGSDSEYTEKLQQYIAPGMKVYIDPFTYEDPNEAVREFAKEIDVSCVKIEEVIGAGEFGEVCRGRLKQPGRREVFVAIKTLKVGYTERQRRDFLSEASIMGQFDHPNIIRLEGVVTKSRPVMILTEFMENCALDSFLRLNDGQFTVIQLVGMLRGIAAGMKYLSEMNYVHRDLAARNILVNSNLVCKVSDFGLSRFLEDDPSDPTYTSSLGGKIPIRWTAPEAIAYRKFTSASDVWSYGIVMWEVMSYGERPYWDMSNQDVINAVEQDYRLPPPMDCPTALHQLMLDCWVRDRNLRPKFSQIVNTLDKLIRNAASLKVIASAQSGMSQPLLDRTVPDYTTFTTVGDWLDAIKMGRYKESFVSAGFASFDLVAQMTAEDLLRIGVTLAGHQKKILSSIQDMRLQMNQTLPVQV

Row | SMILES | inhibition of EPHB3 (dose-response) [1] | inhibition of PRKCD (dose-response) [2] | inhibition of tyrosine kinases [3] | specificity observed in global profiling (percentage-of-inhibition data) [4] | inhibition of FYN (dose-response) [5] | inhibition of FYN in global profiling [6]
1 | CC(C)(C)n1nc(-c2ccc(Cl)cc2)c2c(N)ncnc21 [PP2] | strongly inhibits | not | strongly inhibited | primarily inhibited tyrosine kinases |  | 
2 | Cn1cc(C2=C(c3cn(CCCSC(=N)N)c4ccccc34)C(=O)NC2=O)c2ccccc21 [Ro-31-8220] |  |  |  | more specifically targeted the serine-threonine kinases |  | 
3 | CN[C@@H]1C[C@H]2O[C@@](C)([C@@H]1OC)n1c3ccccc3c3c4c(c5c6ccccc6n2c5c31)C(=O)NC4 [Staurosporine] | not |  |  | broad spectrum of kinases inhibited | strongly inhibits | inhibited
